How the values were obtained:
[1] = xn = mol fraction of the nth substance listed; conditions: for surface tension liquid-gas: 298.15 K, Drop volume; for speed of sound / mass density: 303.15 K, Liquid; for speed of sound: Linear variable-path acoustic interferometer; for mass density: Vibrating tube method
[2] = for speed of sound / mass density: 101.33 kPa, Liquid; for speed of sound: Linear variable-path acoustic interferometer; for mass density: Vibrating tube method; for surface tension liquid-gas: Drop volume

CCOC(=O)OCC [diethyl carbonate] + CCCCCCCCCC
[1]
Conditions | mass density [kg/m3] | speed of sound [m/s] | surface tension liquid-gas [mN/m]
x1 = 0.0495 | 729.09 | 1207.8 | –
x1 = 0.04972 | – | – | 22.98
x1 = 0.09861 | 736.12 | 1201.1 | –
x1 = 0.09958 | – | – | 22.89
x1 = 0.1979 | 751.5 | 1188.8 | –
x1 = 0.1989 | – | – | 22.86
x1 = 0.2966 | – | – | 22.84
x1 = 0.3012 | 769.28 | 1177.8 | –
x1 = 0.3959 | – | – | 22.89
x1 = 0.3995 | 788 | 1168.5 | –
x1 = 0.504 | 810.31 | 1160.2 | –
x1 = 0.5144 | – | – | 22.97
x1 = 0.5477 | 820.39 | 1157.2 | –
x1 = 0.5568 | – | – | 22.98
x1 = 0.5996 | – | – | 23.04
x1 = 0.6015 | 833.53 | 1153.9 | –
x1 = 0.699 | 859.54 | 1149.6 | –
x1 = 0.7 | – | – | 23.24
x1 = 0.7887 | – | – | 23.58
x1 = 0.799 | 889.41 | 1147.7 | –
x1 = 0.8986 | – | – | 24.27
x1 = 0.9002 | 924.32 | 1149.1 | –
x1 = 0.95 | 943.19 | 1151.4 | –
x1 = 0.9516 | – | – | 24.76

CCOC(=O)OCC [diethyl carbonate]
[2]
Conditions | mass density [kg/m3] | speed of sound [m/s] | surface tension liquid-gas [mN/m]
288.15 K | 980.4 | 1218 | –
293.15 K | 974.81 | 1197.7 | –
298.15 K | 969.19 | 1176.9 | 25.43
303.15 K | 963.6 | 1156.3 | –
308.15 K | 957.92 | 1135.8 | –

Cc1ccc(C)cc1 [1,4-dimethylbenzene]
[2]
Conditions | mass density [kg/m3] | speed of sound [m/s] | surface tension liquid-gas [mN/m]
288.15 K | 865.2 | 1350.7 | –
293.15 K | 860.9 | 1329.6 | –
298.15 K | 856.58 | 1308.4 | 27.43
303.15 K | 852.21 | 1287.4 | –
308.15 K | 847.83 | 1266.4 | –

CCCCCCCCCC [decane]
[2]
Conditions | mass density [kg/m3] | speed of sound [m/s] | surface tension liquid-gas [mN/m]
288.15 K | 733.62 | 1274.4 | –
293.15 K | 729.86 | 1254.8 | –
298.15 K | 726.09 | 1234.7 | 23.1
303.15 K | 722.3 | 1214.7 | –
308.15 K | 718.51 | 1194.9 | –

From the NIST ThermoML archive (doi:10.1016/j.jct.2008.12.010)
